Measurements: publication PMC5218480 (PLoS ONE, 2017)

System: MV-4-11 cells
Test: Gene expression microarray analysis (Affymetrix PrimeView) and GSEA
Type: cell-based, human
Set-up: RFU PODN (11730768_x_at) / Fold change /veh PODN (11730768_x_at) / RFU LINC00158 (11744669_a_at) / Fold change /veh LINC00158 (11744669_a_at) / RFU DUSP10 (11751237_a_at) / Fold change /veh DUSP10 (11751237_a_at) / RFU ID3 (11757404_x_at) / Fold change /veh ID3 (11757404_x_at) / RFU PLEKHG5 (11737974_s_at) / Fold change /veh PLEKHG5 (11737974_s_at) / RFU LRRC4B (11730491_at) / Fold change /veh LRRC4B (11730491_at) / RFU GIMAP4 (11747438_a_at) / Fold change /veh GIMAP4 (11747438_a_at) / RFU KRT8 (11758183_x_at) / Fold change /veh KRT8 (11758183_x_at) / RFU CNN1 (11734310_a_at) / Fold change /veh CNN1 (11734310_a_at) / RFU VPS37D (11726825_at) / Fold change /veh VPS37D (11726825_at) / RFU C10orf10 (11716522_x_at) / Fold change /veh C10orf10 (11716522_x_at) / RFU KIR2DL2 /// KIR2DL4 /// KIR2DL5A /// KIR2DL5B /// KIR2DS1 /// KIR2DS2 /// KIR2DS3 /// KIR2DS4 /// KIR3DL3 /// KIR3DL3 /// KIR3DS1 (11738374_at) / Fold change /veh KIR2DL2 /// KIR2DL4 /// KIR2DL5A /// KIR2DL5B /// KIR2DS1 /// KIR2DS2 /// KIR2DS3 /// KIR2DS4 /// KIR3DL3 /// KIR3DL3 /// KIR3DS1 (11738374_at) / RFU C1QL1 (11718748_at) / Fold change /veh C1QL1 (11718748_at) / RFU TMPRSS4 (11747572_a_at) / Fold change /veh TMPRSS4 (11747572_a_at) / RFU HAMP (11756126_x_at) / Fold change /veh HAMP (11756126_x_at) / RFU RNFT2 (11725882_a_at) / Fold change /veh RNFT2 (11725882_a_at) / RFU NR4A2 (11747474_a_at) / Fold change /veh NR4A2 (11747474_a_at) / RFU ABCC12 (11746883_a_at) / Fold change /veh ABCC12 (11746883_a_at) / RFU TMEM136 (11760407_x_at) / Fold change /veh TMEM136 (11760407_x_at) / RFU CLDN22 /// WWC2 (11732394_at) / Fold change /veh CLDN22 /// WWC2 (11732394_at) / RFU HLA-DPB1 (11760878_x_at) / Fold change /veh HLA-DPB1 (11760878_x_at) / RFU SPINT1 (11716480_a_at) / Fold change /veh SPINT1 (11716480_a_at) / RFU GAP43 (11754022_s_at) / Fold change /veh GAP43 (11754022_s_at) / RFU A4GNT (11735810_at) / Fold change /veh A4GNT (11735810_at) / RFU PRB3 (11715151_x_at) / Fold change /veh PRB3 (11715151_x_at) / RFU TUBB4B (11761932_at) / Fold change /veh TUBB4B (11761932_at) / RFU CAPN14 (11732068_a_at) / Fold change /veh CAPN14 (11732068_a_at) / RFU TMCC2 (11721928_a_at) / Fold change /veh TMCC2 (11721928_a_at) / RFU IRGQ (11745062_a_at) / Fold change /veh IRGQ (11745062_a_at) / RFU FAM174B (11720279_a_at) / Fold change /veh FAM174B (11720279_a_at) / RFU TMPRSS4 (11748680_a_at) / Fold change /veh TMPRSS4 (11748680_a_at) / RFU FAM212B (11763350_a_at) / Fold change /veh FAM212B (11763350_a_at) / RFU PLEKHG5 (11743358_a_at) / Fold change /veh PLEKHG5 (11743358_a_at) / RFU ZSCAN30 (11745921_a_at) / Fold change /veh ZSCAN30 (11745921_a_at) / RFU CMKLR1 (11741424_a_at) / Fold change /veh CMKLR1 (11741424_a_at) / RFU LOC101060620 /// MAPK8IP1 (11723275_at) / Fold change /veh LOC101060620 /// MAPK8IP1 (11723275_at) / RFU SPTSSB (11747773_x_at) / Fold change /veh SPTSSB (11747773_x_at) / RFU PRSS12 (11739890_at) / Fold change /veh PRSS12 (11739890_at) / RFU BIN1 (11741810_x_at) / Fold change /veh BIN1 (11741810_x_at) / RFU WNT11 (11732464_a_at) / Fold change /veh WNT11 (11732464_a_at) / RFU C10orf10 (11716521_a_at) / Fold change /veh C10orf10 (11716521_a_at) / RFU C5orf56 (11738089_at) / Fold change /veh C5orf56 (11738089_at) / RFU CYB561 (11721691_x_at) / Fold change /veh CYB561 (11721691_x_at) / RFU ANKRD19P (11752326_a_at) / Fold change /veh ANKRD19P (11752326_a_at) / RFU OR2T12 /// OR2T33 /// OR2T8 (11738714_s_at) / Fold change /veh OR2T12 /// OR2T33 /// OR2T8 (11738714_s_at) / RFU VCAN (11748164_a_at) / Fold change /veh VCAN (11748164_a_at) / RFU JSRP1 (11732532_at) / Fold change /veh JSRP1 (11732532_at) / RFU KRTAP10-11 (11738290_x_at) / Fold change /veh KRTAP10-11 (11738290_x_at) / RFU MYO3A (11730013_a_at) / Fold change /veh MYO3A (11730013_a_at) / RFU EBF3 (11725865_a_at) / Fold change /veh EBF3 (11725865_a_at) / RFU CAMK2N1 (11719241_x_at) / Fold change /veh CAMK2N1 (11719241_x_at) / RFU C5orf56 (11738088_a_at) / Fold change /veh C5orf56 (11738088_a_at) / RFU OLFML3 (11715873_a_at) / Fold change /veh OLFML3 (11715873_a_at) / RFU LOC100653217 /// NTM (11731650_a_at) / Fold change /veh LOC100653217 /// NTM (11731650_a_at) / RFU MAPK11 (11762145_a_at) / Fold change /veh MAPK11 (11762145_a_at) / RFU FIZ1 (11724087_x_at) / Fold change /veh FIZ1 (11724087_x_at) / RFU OASL (11726364_x_at) / Fold change /veh OASL (11726364_x_at) / RFU SOX15 (11748057_x_at) / Fold change /veh SOX15 (11748057_x_at) / RFU CD79A (11719716_a_at) / Fold change /veh CD79A (11719716_a_at) / RFU HIST1H1D (11736915_at) / Fold change /veh HIST1H1D (11736915_at) / RFU CASKIN2 (11723855_a_at) / Fold change /veh CASKIN2 (11723855_a_at) / RFU LOC730098 (11760151_x_at) / Fold change /veh LOC730098 (11760151_x_at) / RFU OR4N2 (11742367_at) / Fold change /veh OR4N2 (11742367_at) / RFU PRRT2 (11749266_a_at) / Fold change /veh PRRT2 (11749266_a_at) / RFU SNX32 (11753110_a_at) / Fold change /veh SNX32 (11753110_a_at) / RFU CDHR5 (11726645_a_at) / Fold change /veh CDHR5 (11726645_a_at) / RFU RCAN1 (11760418_a_at) / Fold change /veh RCAN1 (11760418_a_at) / RFU FAM167A (11723789_a_at) / Fold change /veh FAM167A (11723789_a_at) / RFU FAM26E (11764081_at) / Fold change /veh FAM26E (11764081_at) / RFU ISYNA1 (11749810_s_at) / Fold change /veh ISYNA1 (11749810_s_at) / RFU ACY1 (11761880_at) / Fold change /veh ACY1 (11761880_at) / RFU 11764098_at / Fold change /veh 11764098_at / RFU SAMD14 (11745864_x_at) / Fold change /veh SAMD14 (11745864_x_at) / RFU NPB (11741838_a_at) / Fold change /veh NPB (11741838_a_at) / RFU TMPRSS6 (11731388_a_at) / Fold change /veh TMPRSS6 (11731388_a_at) / RFU KRTAP10-2 (11738614_at) / Fold change /veh KRTAP10-2 (11738614_at) / RFU ARHGAP8 /// PRR5-ARHGAP8 (11727945_x_at) / Fold change /veh ARHGAP8 /// PRR5-ARHGAP8 (11727945_x_at) / RFU KRTAP5-7 /// NADSYN1 (11734609_at) / Fold change /veh KRTAP5-7 /// NADSYN1 (11734609_at) / RFU RASL12 (11751679_a_at) / Fold change /veh RASL12 (11751679_a_at) / RFU CDKN2B (11736163_a_at) / Fold change /veh CDKN2B (11736163_a_at) / RFU PRF1 (11729649_at) / Fold change /veh PRF1 (11729649_at) / RFU, ZNF638 /// ZNF638-IT1 / Fold change vs veh, ZNF638 /// ZNF638-IT1 / RFU, PANK3 / Fold change vs veh, PANK3 / RFU, SH3YL1 / Fold change vs veh, SH3YL1 / RFU, ZEB2 / Fold change vs veh, ZEB2 / RFU, NRIP1 / Fold change vs veh, NRIP1 / RFU, PTTG1IP / Fold change vs veh, PTTG1IP / RFU, CAPN2 / Fold change vs veh, CAPN2 / RFU, MED14 / Fold change vs veh, MED14 / RFU, SNORA58 / Fold change vs veh, SNORA58 / RFU, C1orf63 / Fold change vs veh, C1orf63 / RFU, LRRFIP1 / Fold change vs veh, LRRFIP1 / RFU, NDUFAF7 / Fold change vs veh, NDUFAF7 / RFU, SLC12A2 / Fold change vs veh, SLC12A2 / RFU, IBTK / Fold change vs veh, IBTK / RFU, ESF1 / Fold change vs veh, ESF1 / Fold change vs veh, TMEM50B / RFU, TAOK1 / Fold change vs veh, TAOK1 / RFU, ACBD3 / Fold change vs veh, ACBD3 / RFU, TMA16 / Fold change vs veh, TMA16 / RFU, RWDD3 / Fold change vs veh, RWDD3 / RFU, BCAT1 / Fold change vs veh, BCAT1 / RFU, EDEM3 / Fold change vs veh, EDEM3 / RFU, TMEM33 / Fold change vs veh, TMEM33 / RFU, WDR75 / Fold change vs veh, WDR75 / RFU, AHCTF1 / Fold change vs veh, AHCTF1 / RFU, TFRC / Fold change vs veh, TFRC / RFU, ZDHHC17 / Fold change vs veh, ZDHHC17 / RFU, NOM1 / Fold change vs veh, NOM1 / RFU, ARL8B / Fold change vs veh, ARL8B / RFU, ZBTB11 / Fold change vs veh, ZBTB11 / RFU, TAMM41 / Fold change vs veh, TAMM41 / RFU, KIAA1704 /// LOC100996395 / Fold change vs veh, KIAA1704 /// LOC100996395 / RFU, ING1 / Fold change vs veh, ING1 / RFU, TRMT61B / Fold change vs veh, TRMT61B / RFU, FUBP3 / Fold change vs veh, FUBP3 / RFU, TP53 / Fold change vs veh, TP53 / RFU, TNKS2 / Fold change vs veh, TNKS2 / RFU, ZFP14 / Fold change vs veh, ZFP14 / RFU, ACTR2 / Fold change vs veh, ACTR2 / RFU, PPP3R1 / Fold change vs veh, PPP3R1 / RFU, PIK3R1 / Fold change vs veh, PIK3R1 / RFU, HNRNPA1 / Fold change vs veh, HNRNPA1 / RFU, RNF170 / Fold change vs veh, RNF170 / RFU, ZNF28 / Fold change vs veh, ZNF28 / RFU, RNGTT / Fold change vs veh, RNGTT / RFU, OGT / Fold change vs veh, OGT / RFU, BRD1 / Fold change vs veh, BRD1 / RFU, MARS / Fold change vs veh, MARS / RFU, ZNF655 / Fold change vs veh, ZNF655 / RFU, FAHD1 / Fold change vs veh, FAHD1 / RFU, BDP1 / Fold change vs veh, BDP1 / RFU, LRRCC1 / Fold change vs veh, LRRCC1 / RFU, ARID1A / Fold change vs veh, ARID1A / RFU, ZNF146 / Fold change vs veh, ZNF146 / RFU, ZNF330 / Fold change vs veh, ZNF330 / RFU, GPN3 / Fold change vs veh, GPN3 / RFU, C9orf123 / Fold change vs veh, C9orf123 / RFU, N4BP2L2 / Fold change vs veh, N4BP2L2 / RFU, ARFIP1 / Fold change vs veh, ARFIP1 / RFU, FAM179B / Fold change vs veh, FAM179B / RFU, BCL10 / Fold change vs veh, BCL10 / RFU, UHRF1BP1L / Fold change vs veh, UHRF1BP1L / RFU, BET1 / Fold change vs veh, BET1 / RFU, CNOT2 / Fold change vs veh, CNOT2 / RFU, ZNF268 / Fold change vs veh, ZNF268 / Fold change vs veh, ZNF507 / RFU, DGCR2 / Fold change vs veh, DGCR2 / RFU, WDSUB1 / Fold change vs veh, WDSUB1 / Fold change vs veh, HSP90B1 /// MIR3652 / RFU, ADSS / Fold change vs veh, ADSS / RFU, GK / Fold change vs veh, GK / RFU, ZNF148 / Fold change vs veh, ZNF148 / RFU, TAF9 / Fold change vs veh, TAF9 / RFU, SLC1A5 / Fold change vs veh, SLC1A5 / RFU, SLMO2 / Fold change vs veh, SLMO2 / RFU, ABCC4 / Fold change vs veh, ABCC4 / RFU, LOC101060439 /// RAP1B / Fold change vs veh, LOC101060439 /// RAP1B / RFU, RFX7 / Fold change vs veh, RFX7 / RFU, GTPBP10 / Fold change vs veh, GTPBP10 / RFU, CNEP1R1 / Fold change vs veh, CNEP1R1 / RFU, BIVM-ERCC5 /// ERCC5 / Fold change vs veh, BIVM-ERCC5 /// ERCC5 / RFU, ILF3 / Fold change vs veh, ILF3 / RFU 11762660_at / Fold change /veh 11762660_at / RFU VCAN (11757783_s_at) / Fold change /veh VCAN (11757783_s_at) / RFU DDX43 (11728927_at) / Fold change /veh DDX43 (11728927_at) / RFU KRT8 (11758188_x_at) / Fold change /veh KRT8 (11758188_x_at) / RFU NKD1 (11759106_at) / Fold change /veh NKD1 (11759106_at) / RFU SRD5A1 (11742802_a_at) / Fold change /veh SRD5A1 (11742802_a_at) / RFU TPSAB1 /// TPSB2 (11721975_s_at) / Fold change /veh TPSAB1 /// TPSB2 (11721975_s_at) / RFU GSTM3 (11746129_a_at) / Fold change /veh GSTM3 (11746129_a_at) / RFU IL23R (11737362_x_at) / Fold change /veh IL23R (11737362_x_at) / RFU TMEM51 (11727254_a_at) / Fold change /veh TMEM51 (11727254_a_at) / RFU PIWIL2 (11732686_x_at) / Fold change /veh PIWIL2 (11732686_x_at) / RFU ORM1 (11744905_x_at) / Fold change /veh ORM1 (11744905_x_at) / RFU CCDC152 (11743942_at) / Fold change /veh CCDC152 (11743942_at) / RFU ECM1 (11717891_a_at) / Fold change /veh ECM1 (11717891_a_at) / RFU IL23R (11748794_a_at) / Fold change /veh IL23R (11748794_a_at) / RFU TNFAIP8L3 (11732012_x_at) / Fold change /veh TNFAIP8L3 (11732012_x_at) / RFU MBOAT4 (11741988_at) / Fold change /veh MBOAT4 (11741988_at) / RFU 11764193_at / Fold change /veh 11764193_at / RFU TMEM53 (11763286_at) / Fold change /veh TMEM53 (11763286_at) / RFU MAGEB2 (11727129_at) / Fold change /veh MAGEB2 (11727129_at) / RFU TMEM200A (11744735_a_at) / Fold change /veh TMEM200A (11744735_a_at) / RFU CCDC152 (11751479_a_at) / Fold change /veh CCDC152 (11751479_a_at) / RFU FAM211A (11726209_a_at) / Fold change /veh FAM211A (11726209_a_at) / RFU RGS16 (11746705_a_at) / Fold change /veh RGS16 (11746705_a_at) / RFU VCAN (11755009_s_at) / Fold change /veh VCAN (11755009_s_at) / RFU RHOB (11743442_s_at) / Fold change /veh RHOB (11743442_s_at) / RFU RGS16 (11720943_a_at) / Fold change /veh RGS16 (11720943_a_at) / RFU RGS16 (11720944_at) / Fold change /veh RGS16 (11720944_at) / RFU, VPS4B / Fold change vs veh, VPS4B / RFU, CREB1 / Fold change vs veh, CREB1 / RFU, DNAJC13 / Fold change vs veh, DNAJC13 / RFU, GNAQ / Fold change vs veh, GNAQ / RFU, CDK5R1 / Fold change vs veh, CDK5R1 / RFU, ZRANB3 / Fold change vs veh, ZRANB3 / RFU, CUL4A / Fold change vs veh, CUL4A / RFU, CCNY / Fold change vs veh, CCNY / RFU, UFL1 / Fold change vs veh, UFL1 / RFU, COG3 / Fold change vs veh, COG3 / RFU, DIAPH2 / Fold change vs veh, DIAPH2 / RFU, SKA2 / Fold change vs veh, SKA2 / RFU, AFF3 / Fold change vs veh, AFF3 / RFU, LMF1 / Fold change vs veh, LMF1 / RFU, IPO11 / Fold change vs veh, IPO11 / RFU, DFFB / Fold change vs veh, DFFB / RFU, FOXP1 / Fold change vs veh, FOXP1 / RFU, CARD8 / Fold change vs veh, CARD8 / RFU, STRN3 / Fold change vs veh, STRN3 / RFU, ADK / Fold change vs veh, ADK / RFU, RASSF2 / Fold change vs veh, RASSF2 / RFU, WIPF1 / Fold change vs veh, WIPF1 / RFU, LARP1B / Fold change vs veh, LARP1B / RFU, RASA1 / Fold change vs veh, RASA1 / RFU, RB1 / Fold change vs veh, RB1 / RFU, PPFIA1 / Fold change vs veh, PPFIA1 / RFU, MAT2A / Fold change vs veh, MAT2A / RFU, CCT5 / Fold change vs veh, CCT5 / RFU, WDR92 / Fold change vs veh, WDR92 / RFU, CUX1 / Fold change vs veh, CUX1 / RFU, TTC7A / Fold change vs veh, TTC7A / RFU, TMEM135 / Fold change vs veh, TMEM135 / RFU, DEPTOR / Fold change vs veh, DEPTOR / RFU, CPM / Fold change vs veh, CPM / RFU, DNAJB6 / Fold change vs veh, DNAJB6 / RFU, CACNA2D3 / Fold change vs veh, CACNA2D3 / RFU, DTX4 / Fold change vs veh, DTX4 / RFU, TFCP2 / Fold change vs veh, TFCP2 / RFU, GMCL1 /// GMCL1P1 / Fold change vs veh, GMCL1 /// GMCL1P1 / RFU, AEBP2 / Fold change vs veh, AEBP2 / RFU, SNHG1 /// SNORD22 /// SNORD25 /// SNORD26 /// SNORD27 /// SNORD28 /// SNORD29 /// SNORD31 / Fold change vs veh, SNHG1 /// SNORD22 /// SNORD25 /// SNORD26 /// SNORD27 /// SNORD28 /// SNORD29 /// SNORD31 / Fold change (Aza/veh), C12orf56 (ProbeSet 11735607_a_at) / Fold change (ACY-1035/veh), C12orf56 (ProbeSet 11735607_a_at) / Fold change (Aza/veh), FGFR1OP (ProbeSet 11751329_s_at) / Fold change (ACY-1035/veh), FGFR1OP (ProbeSet 11751329_s_at) / Fold change (Aza/veh), VPS36 (ProbeSet 11739960_a_at) / Fold change (ACY-1035/veh), VPS36 (ProbeSet 11739960_a_at) / RFU SYPL1 (11715823_x_at) / Fold change /veh SYPL1 (11715823_x_at) / RFU IGFBP7 (11715501_s_at) / Fold change /veh IGFBP7 (11715501_s_at) / RFU REEP3 (11722064_at) / Fold change /veh REEP3 (11722064_at) / RFU IGLL1 (11728026_x_at) / Fold change /veh IGLL1 (11728026_x_at): dose or concentration left out as unconfirmed
Details: MV-4-11 cells, 48 hours

For `Nc1ncn([C@@H]2O[C@H](CO)[C@@H](O)[C@H]2O)c(=O)n1` [azacitidine], the “RFU VCAN (11755009_s_at)” value was 15.18 RFU.
